Experimental findings from patent publication US6440999B1, “Intimal thickening inhibitory agent” (Chugai Seiyaku Kabushiki Kaisha, priority 1995, dated 2002) are described below.

Molecules are shown by their SMILES. Marks after values point to notes of the source that are not given here.

Experiment [1] deals with rabbit balloon injury models. In words: In vivo effect in intimal thickening model (1), rabbit balloon injury. On the procedure: In order to assess the inhibitory effect of the compound of the present invention on intimal thickening in vivo, the compound of Example 36 was tested using rabbit balloon injury models.
(§1) Cholesterol-fed rabbits in groups of eight (JW: CSK male, 11-week-old) were used to prepare rabbit balloon injury models. Briefly, rabbits were fed with a high cholesterol diet (cholesterol content: 1%) for 2 weeks before balloon treatment. The animals were balloon-treated with a balloon catheter (3 French, available from Baxter) under anesthesia to peel the aortic intima 5 times. The animals were orally administered with the compound which was suspended in a 1% carboxymethyl cellulose (CMC) solution (200 mg/kg). On the other hand, control animals were orally administered with a 1% CMC solution without the compound. The administrations were performed once a day from 1 week before the balloon treatment until the day before the dissection for evaluation.
After four weeks from the balloon treatment, specimens were taken from the aorta, stained with Elastica van Geison, and analyzed under an optical microscope. The image was processed to measure the thickness and area of the thickened intima. Averages of the thickness and area were obtained for each individual animal. The animals which died due to the operation and those having a serum cholesterol level of 3500 mg/dl or higher were excluded from the measurement. The number of animals used for the evaluation was 5 or 6 per group.

The subject of experiment [2] is A7r5 cells derived from the aorta of a rat. In words: Inhibition of serum-stimulated proliferation of vascular smooth muscle cells, BrdU uptake (EIA). It is filed as cell-based. The following applies: for Absorbance (difference between 405 nm and 492 nm), BrdU uptake: n = 3, mean ± SD. The procedure: In order to assess the inhibitory effect of a compound of the present invention on serum-stimulated pro-liferation of vascular smooth muscle cells in vitro, the compound obtained in Example 36 was tested using A7r5 cells derived from the aorta of a rat (ATCC-CRL-1444).
Using DMEM medium containing 10% FBS, the cells were placed on 96-well microtiter plates with 5×10^3 cells/0.2 ml/well and then incubated. The medium was exchanged for 2% FBS-containing DMEM medium on the third day and then for 0.2% FBS-containing DMEM medium on the fourth day from the start of the incubation. After 48-hour incubation in the 0.2% FBS-containing DMEM medium, the medium was removed, 0.1 ml of DMEM medium and the test compound were added, and the cells were stimulated with serum (2% FBS) to proliferate. The test compound was added to the wells in the form of a solution or suspension in ethanol in an amount of 0.5 μl/well to final compound concentrations indicated in Table 1 below and the resultant ethanol concentration of 0.5% in each well. BrdU was pulsed to the wells from the 16th to 38th hours or from the 38th to 64th hours after the stimulation to a final concentration of 10 μM, and the uptake of BrdU into DNA was evaluated as an indication of cell proliferation. The BrdU uptake was measured by means of an EIA kit containing an anti-BrdU antibody (5-Bromo-2′-deoxy-uridine Labeling and Detection Kit III, available from Bohringer Mannheim Biochemica).

Experiment [3] relates to rabbit balloon injury models. In words: In vivo effect in intimal thickening model (2), rabbit balloon injury. The procedure: In order to assess the inhibitory effect of the compound of the present invention on intimal thickening in vivo, the compound of Example 36 was tested using rabbit balloon injury models that were different from those used in Test Example 4 in week-age. Further, the effect was compared with that of Probucol which was reported to have an inhibitory effect on intimal thickening in balloon injury models (see Proc. Natl. Acad. Sci., U.S.A., 89, pp 11312-11316 (1992)).
as §1, with “seven” for “eight”, “15-week-old)” for “11-week-old)”, “(4” for “(3”, “CMC” for “carboxymethyl cellulose (CMC)”, “evaluation. In order to evaluate the degree of balloon injury, a balloon-nontreated group (3 animals) was prepared.” for “evaluation.”
After four weeks from the balloon treatment, specimens were taken from the aorta, stained with Elastica van Geison, and analyzed under an optical microscope. The image was processed to measure the thickness and area of the thickened intima. Averages of the thickness and area were obtained for each individual animal. The animals which died after the operation and those having a serum cholesterol level of 3500 mg/dl or higher were excluded from the measurement. The number of animals used for the evaluation was 4 or 5 per group.

Experiment [4] relates to A7r5 cells derived from the aorta of a rat. In words: Inhibition of serum-stimulated proliferation of vascular smooth muscle cells, acid phosphatase activity. The settings on record: 48 hours after 2% FBS stimulation, n = 3, mean ± SD; for Acid Phosphatase Activity Absorbance (OD405): control 0.867 ± 0.089. It is filed as cell-based. On the procedure: In order to assess the inhibitory effect of the compounds of the present invention on serum-stimulated proliferation of vascular smooth muscle cells in vitro, the compounds of Examples 1, 4, 20, 22, 27, 31, 36, 50, 52, and 58 were tested using A7r5 cells derived from the aorta of a rat (ATCC-CRL-1444).
Using DMEM medium containing 10% FBS, the cells were placed on 96-well microtiter plates with 5×10^3 cells/0.2 ml/ well and then incubated. The medium was exchanged for 2% FBS-containing DMEM medium on the third day and then for 0.2% FBS-containing DMEM medium on the fourth day from the start of the incubation. After 24-hour incubation in the 0.2% FBS-containing DMEM medium, the test compound was added. Each of the test compounds were added to the wells in the form of a solution or suspension in ethanol in an amount of 1 μl/well to final compound concentrations indicated in Table 3 below and the resultant ethanol concentration of 0.5% in each well. After additional 24-hour incubation, the medium was removed, and 0.2 ml of DMEM medium and the test compound were added thereto again, and the cells were stimulated by serum (2% FBS). Forty-eight hours after the stimulation, the acid phosphatase activity in the wells was measured by means of a kit (Abacus Cell Proliferation Kit, available from Clontech Lab. Inc. CA, U.S.A.) and evaluated as an indication of cell proliferation.

Where [5] appears, read: both intimal thickness and intimal area, 200 mg/kg oral.

Consider `CCCCCC1(CCCCC)Cc2c(cc(C(C)(C)C)c(O)c2C(C)(C)C)O1` [Example 36, 4,6-Di-t-butyl-2,2-di-n-pentyl-5-hydroxy-2,3-dihydrobenzofuran], for which the “Inhibitory effect on intimal thickening (in words)” value in experiment [1] (setting [5]) and in experiment [3] (setting [5]) was “significant inhibitory effect on intimal thickening” throughout. The “Area of Intima” value in experiment [1] (cholesterol-fed rabbits, 11-week-old, 200 mg/kg oral once a day, four weeks after balloon treatment, control 0.26 ± 0.03, mean ± SD) was 0.11 ± 0.08** mm^2; in experiment [3] (cholesterol-fed rabbits, 15-week-old, 200 mg/kg oral once a day, four weeks after balloon treatment, control 1.32 ± 0.22, mean ± SD) it was 0.81 ± 0.22 mm². Further, the “Thickness of Intima” value in experiment [1] (cholesterol-fed rabbits, 11-week-old, 200 mg/kg oral once a day, four weeks after balloon treatment, control 103 ± 12, mean ± SD) came out at 45 ± 31 μm; in experiment [3] (cholesterol-fed rabbits, 15-week-old, 200 mg/kg oral once a day, four weeks after balloon treatment, control 119 ± 19, mean ± SD) it was 76 ± 16 μm. Further, the “Absorbance (difference between 405 nm and 492 nm), BrdU uptake” value is 0.397 ± 0.054 in experiment [2] (10 μM, BrdU pulse 16-38 hrs. after 2% FBS stimulation, control 0.433 ± 0.008); 0.195 ± 0.017 in experiment [2] (10 μM, BrdU pulse 38-64 hrs. after 2% FBS stimulation, control 0.436 ± 0.060); 0.362 ± 0.026 in experiment [2] (30 μM, BrdU pulse 16-38 hrs. after 2% FBS stimulation, control 0.433 ± 0.008); 0.085 ± 0.006 in experiment [2] (30 μM, BrdU pulse 38-64 hrs. after 2% FBS stimulation, control 0.436 ± 0.060); 0.290 ± 0.031 in experiment [2] (100 μM, BrdU pulse 16-38 hrs. after 2% FBS stimulation, control 0.433 ± 0.008); 0.049 ± 0.006 in experiment [2] (100 μM, BrdU pulse 38-64 hrs. after 2% FBS stimulation, control 0.436 ± 0.060). Also, the “Inhibition of serum-stimulated proliferation of vascular smooth muscle cells (in words)” value in experiment [2] (BrdU uptake, 10-100 μM) was “inhibits the serum-stimulated proliferation of vascular smooth muscle cells dose-dependently”. In addition, the “Inhibitory effect on intimal thickening compared with Probucol (in words)” value in experiment [3] (200 mg/kg oral) is reported as “higher than that of Probucol”. Besides, the “Acid Phosphatase Activity Absorbance (OD405)” value in experiment [4] (10 μM) came out at 0.733 ± 0.060; in experiment [4] (100 μM), 0.539 ± 0.055. In experiment [4] (Rattus norvegicus, A7R5, 10 μM, control 100 ± 10), this compound displayed an activity at 10 µM of 84 ± 7%. The same compound came in with an activity at 100 µM in experiment [4] (Rattus norvegicus, A7R5, 100 μM, control 100 ± 10) of 62 ± 6%.
